Assay results from patent publication US9839618B2, “Compositions and methods relating to proliferative diseases” (The Penn State Research Foundation, priority 2010, dated 2017).
Like-named read-outs stand apart in the source and are kept apart here.

Legend:
[1] = tested on: UACC 903 metastatic melanoma cells; test: MTS assay viability IC50, UACC 903; format: cell-based, human; settings: for IC50: Homo sapiens, UACC-903; for Selectivity ratio, fibroblasts versus UACC903: activity against fibroblasts FF2441 compared to melanoma cells
Procedure: (§1) The efficacy of leelamine to kill other cancer types is measured and the IC50 for cell lines derived from carcinomas of breast, lung, prostate, connective tissue, pancreas and colon determined. The MTS assay as described in Sharma, A. et al., Clin Cancer Res, 2009, 15:1674-85; and Madhunapantula, S. V. et al., Mol Cancer Ther, 2008, 7:1297-308 is used to establish the IC50 at 24, 48 and 72 hours of leelamine treatment for normal human epidermal melanocytes (FOM103), normal skin fibroblast cells (FF2441), normal skin keratinocytes (HFK) and compared to melanocytic lesion cells from the radial-, vertical- and metastatic melanoma stages. 5×10^3 cells per well in 100 μL of media are plated and grown in a 96-well plate for 48 to 72 hours and treated with either DMSO vehicle control or 0.62 to 40 μmol/L of leelamine for 24, 48 or 72 hours. IC50 values for each compound in μmol/L for respective cell lines are measured from three independent experiments using GraphPad Prism version 4.01 (GraphPad Software, La Jolla, Calif.). Leelamine is found to be not toxic to normal cells and effective to kill melanoma cells as well as non-melanoma cancer cells as shown in Table 1 in FIG. 20. Leelamine is 3- to 4-fold more specific at killing metastatic melanoma than normal cells, supporting cancer therapeutic utility at concentrations<2 μmol/L.
(§2) 5×10^3 cells per well in 100 μL of media are plated and grown in a 96-well plate for 48 to 72 hours and treated with either DMSO vehicle control or 0.62 to 40 μmol/L of leelamine for 24, 48 or 72 hours. IC50 values for each compound in μmol/L for respective cell lines are measured from three independent experiments using GraphPad Prism version 4.01 (GraphPad Software, La Jolla, Calif.).
(§3) The IC50 and effect of liposomal preparations of leelamine on viability of normal human melanocytes, fibroblasts and melanoma cells UACC 903 and 1205 Lu are measured using the MTS assay (Promega, Madison, Wis.). Empty liposomes or liposomes containing abietic acid are used as controls. 5×10^3 cells per well in 100 μL of media are plated and grown in a 96-well plate for 48 or 72 hours for melanoma and normal cell lines, respectively. The cells are then treated with 0.62 to 40 μmol/L of liposome alone, a liposomal preparation of abietic acid, or with Nanolipolee-007 for 24 hours. IC50 values for each liposome in μmol/L for respective cell lines are measured from three independent experiments using GraphPad Prism version 4.01 (GraphPad Software, La Jolla, Calif.). Nanolipolee-007 retains the growth inhibitory activity of leelamine in killing melanoma cells in culture and specifically kills melanoma cells compared to normal cells, FIG. 24.
(§4) Dehydroabietylamine, its N-substituted derivatives and the corresponding dihydroabietylamine and its N-substituted derivatives are tested for their capability to inhibit cell growth of cancer cell lines, including melanoma (UACC 903, 1205Lu), breast (MCF-7), fibrosarcoma (HT-1080), colon (Caco-2), and prostate (PC-3) cancer cell lines. Viability and IC50 of normal human fibroblasts and cell lines from melanoma and other malignancies following treatment with all the agents are measured using the MTS assay (Promega, Madison, Wis.). Human fibroblast FF2441 cells, metastatic melanoma cell lines 1205 Lu and UACC 903 as well as cancer cell lines representing sarcoma (HT-1080), prostate (PC-3, LNCaP), breast (MCF-7) and lung (A-549) are maintained in DMEM (Invitrogen, Carlsbad, Calif.) supplemented with 10% FBS (Hyclone, Logan, Utah) in a 5% CO2 atmosphere, humidified 37° C. incubator. 5×10^3 cells per well in 100 μL of media are plated and grown in a 96-well plate for 48 to 72 h and treated with either DMSO vehicle control or 0.62 to 40 μmol/L for 24, 48 or 72 h. IC50 values for each compound in […] for respective cell lines are measured from three independent experiments using GraphPad Prism version 4.01 (GraphPad Software, La Jolla, Calif.). […]

[2] = tested on: 1205 Lu metastatic melanoma cells; test: MTS assay viability IC50, 1205 Lu; format: cell-based, human; settings: for IC50: Homo sapiens, 1205Lu; for Selectivity ratio, fibroblasts versus 1205Lu: activity against fibroblasts FF2441 compared to melanoma cells
Procedure: as §1, §2, §3, §4

cancer cell line = test: MTS assay viability IC50, A-459; format: cell-based; settings: A459; Table 5; read-out: IC50 Liver (A-459)
Procedure: Dehydroabietylamine, its N-substituted derivatives and the corresponding dihydroabietylamine and its N-substituted derivatives are tested for their capability to inhibit cell growth of cancer cell lines, including melanoma (UACC 903, 1205Lu), breast (MCF-7), fibrosarcoma (HT-1080), colon (Caco-2), and prostate (PC-3) cancer cell lines. Viability and IC50 of normal human fibroblasts and cell lines from melanoma and other malignancies following treatment with all the agents are measured using the MTS assay (Promega, Madison, Wis.). Human fibroblast FF2441 cells, metastatic melanoma cell lines 1205 Lu and UACC 903 as well as cancer cell lines representing sarcoma (HT-1080), prostate (PC-3, LNCaP), breast (MCF-7) and lung (A-549) are maintained in DMEM (Invitrogen, Carlsbad, Calif.) supplemented with 10% FBS (Hyclone, Logan, Utah) in a 5% CO2 atmosphere, humidified 37° C. incubator. 5×10^3 cells per well in 100 μL of media are plated and grown in a 96-well plate for 48 to 72 h and treated with either DMSO vehicle control or 0.62 to 40 μmol/L for 24, 48 or 72 h. IC50 values for each compound in […] for respective cell lines are measured from three independent experiments using GraphPad Prism version 4.01 (GraphPad Software, La Jolla, Calif.). FIG. 52 is a graph showing IC50 values for leelamine and compounds 4a, 4b and 5a in treated fibroblasts (FF2441) compared to melanoma cells. Selectivity ratio here is defined as ratio of activity against fibroblasts compared to activity against melanoma cells. Leelamine is relatively selective with a ratio of >6 and >4 for UACC903 and 1205Lu melanoma cells. The selectivity ratio of compound 4a is ˜4 and ˜3 for UACC903 and 1205Lu and for compound 4b is ˜4 for both cell lines. The selectivity ratio of compound 5a is ˜4 for UACC903 and >2 for 1205Lu cells.

[3] = Table 4, read-out: IC50 Metastatic Melanoma Cell line UACC903
[4] = Table 5, read-out: IC50 Melanoma (UACC903)
[5] = Table 6, read-out: IC50 Metastatic melanoma UACC 903
[6] = Table 7, read-out: IC50 (UACC903)
[7] = Table 4, read-out: IC50 Metastatic Melanoma Cell line 1205Lu
[8] = Table 6, read-out: IC50 Metastatic melanoma 1205 Lu

SMILES: CC(C)c1ccc2c(c1)CCC1[C@](C)(CNC(=O)C(F)(F)F)CCC[C@]21C (stereo partly drawn) [Compound 5a, N-{[(1R,4aS)-1,4a-dimethyl-7-(propan-2-yl)-1,2,3,4,4a,9,10,10a-octahydrophenanthren-1-yl]methyl}-2,2,2-trifluoroacetamide]
- IC50 [1, 3]: 1.28 ± 0.05 µM
- IC50 [1, 4]: 1.28 ± 0.05 µM
- IC50 [1, 5]: 1.28 ± 0.05 µM
- IC50 [1, 6]: 1.28 µM
- Selectivity ratio, fibroblasts versus UACC903 [1]: ~4
- IC50 [2, 7]: 2.08 ± 0.05 µM
- IC50 [2, 8]: 2.08 ± 0.05 µM
- Selectivity ratio, fibroblasts versus 1205Lu [2]: > 2
- IC50 (cancer cell line): 9.7 ± 1.34 µM

SMILES: CC(C)c1ccc2c(c1)CCC1[C@](C)(CN)CCC[C@]21C (stereo partly drawn) [Leelamine, [(1R,4aS)-1,4a-dimethyl-7-(propan-2-yl)-1,2,3,4,4a,9,10,10a-octahydrophenanthren-1-yl]methanamine]
- IC50 [1, 4]: 1.35 ± 0.5 µM
- IC50 [1, 5]: 1.35 ± 0.05 µM
- IC50 [1, 6]: 1.35 µM
- Selectivity ratio, fibroblasts versus UACC903 [1]: > 6
- IC50 [2, 8]: 1.93 ± 0.16 µM
- Selectivity ratio, fibroblasts versus 1205Lu [2]: > 4
- IC50 (cancer cell line): 9.27 ± 1.43 µM

SMILES: CC(C)C1=CC2=CCC3[C@](C)(CN)CCC[C@]3(C)C2CC1 (stereo partly drawn) [Compound 4a, {[(1R,4aR)-1,4a-dimethyl-7-(propan-2-yl)-1,2,3,4,4a,4b,5,6,10,10a-decahydrophenanthren-1-yl]methyl}amine]
- IC50 ([1]; Example 8, read-out: IC50 UACC 903): 2.13 µM
- IC50 [1, 3]: 2.13 ± 0.19 µM
- IC50 [1, 4]: 2.36 ± 0.25 µM
- IC50 [1, 5]: 2.13 ± 0.19 µM
- IC50 [1, 6]: 2.13 µM
- Selectivity ratio, fibroblasts versus UACC903 [1]: ~4
- IC50 ([2]; Example 8, read-out: IC50 1205Lu): 2.87 µM
- IC50 [2, 7]: 2.87 ± 0.07 µM
- IC50 [2, 8]: 2.87 ± 0.07 µM
- Selectivity ratio, fibroblasts versus 1205Lu [2]: ~3
- IC50 (cancer cell line): 19.1 ± 3.87 µM

SMILES: CC(C)C1=CC2=CCC3[C@](C)(CCC[C@@]3(C)C(=O)O)C2CC1 (stereo partly drawn) [Abietic acid, (1R,4aR)-1,4a-dimethyl-7-(propan-2-yl)-1,2,3,4,4a,4b,5,6,10,10a-decahydrophenanthrene-1-carboxylic acid, reference compound]
- IC50 [1, 3]: > 100 µM
- IC50 [1, 4]: > 100 µM
- IC50 [1, 5]: > 100 µM
- IC50 [1, 6]: > 100 µM
- IC50 [2, 7]: > 100 µM
- IC50 [2, 8]: > 100 µM
- IC50 (cancer cell line): > 100 µM
